Results: patent publication US20050113458A1, “Use of 1-aminocyclohexane derivatives to modify deposition of fibrillogenic a-beta peptides in amyloidopathies” (Forest Laboratories, Inc., priority 2003, published 2005)
“Also recorded” adds a separate entry of the source. Where two headings read alike, the source gives them in different places. Blank lines part the entries; values can stand above or below the molecule they belong to.

Experiments:
Aβ40 = Aβ40 levels in conditioned media by sandwich ELISA; type: cell-based, human; settings: SK-N-SH cells; for levels of Aβ40 in conditioned media: 0.25-1.0 μg/ml (1-4 μM)
Experimental: (§1) Cell culture and drug treatment. Human neuroblastoma (SK-N-SH, ATCC HTB-11, Biedler et al., Cancer Res. 1973, 33(11): 2643-52) cells were seeded at approximately 2×10^6 cells/well in a 6-well plate. Thereafter, drug concentrations of memantine were initiated at 0 μg/ml (control), 0.25 μg/ml (1 μM), 0.5 μg/ml (2 μM), and 1.0 μg/ml (4 μM) in MEM media supplemented with 1% FBS and 1× antibiotic. Treatment period was 12 days with a collection of conditioned media (CM) at 3 day intervals. Following collection, fresh memantine-media was added and the process repeated until harvest on day 12. The levels of both sAPP and Aβ40 were determined as described below.
Analysis of Aβ levels by ELISA. Quantitative solid phase sandwich ELISA (enzyme linked immunosorbent assay) was used to measure Aβ40 levels in the conditioned media samples. Specifically, an affinity purified anti-human Aβ (35-40) rabbit IgG was used as a capture antibody, and affinity purified HRP-conjugated anti-human Aβ (11-28) rabbit IgG Fab was used as a detection antibody (both reagents from IBL (Japan)). Since an antibody against Aβ (11-28) was used as a secondary conjugated antibody, human Aβ40 variants which cleaved at N-terminus sites were also detectable in the ELISA assay. TMB was used as a coloring agent (Chromogen). The measurement range was from 15.6 to ˜1,000 pg/ml (3.6 to ˜230.9 pmol/l).
(§2) Data Analysis. Data were analyzed from 3-6 independent cell culture experiments. Statistical analysis (e.g., analysis of variance and post-hoc tests for multiple comparisons) was performed using the SPSS program (Statistical Products and Services Solutions, Chicago, Ill.) and included the mean and the standard error of the mean.

APP/PS1 and NT mice [1] = test: Exploratory activity (TruScan automated activity monitor); type: in vivo; settings: 30 mg/kg/day in drinking water, 10-min recording
Description: Transgenic mice expressing either human PS1 harboring the familial AD-linked A246E mutation or chimeric mouse/human APP695 harboring a human Aβ domain and mutations (K595N, M596L) linked to Swedish familial AD pedigrees (APPswe) (Borchelt et al., 1997) were back-crossed to C57BL/6J for 16 generations and then crossed together to generate double transgenic mice co-expressing both transgenes. In all tests, 8-month-old double-mutant male mice (APP/PS1; n=45) and their non-transgenic littermates (NT; n=36, ) were used. […] The therapeutic dose of memantine was defined as the dose producing a steady-state plasma drug level of ˜1 μM and was determined in 8-month-old male C57 BL/6J mice (background strain of the transgenic mice). […]
Exploratory activity: TruScan® (Coulbourn Instruments, CO, USA) automated activity monitor based on infrared photo detection was used for monitoring exploratory activity. […] Activity was measured for 10 min in two separate sessions separated by 48 h.
Statistical analysis All statistical analyses were performed using SPSS for Windows software, version 11.5.1 (SPSS, Chicago, Ill.). The effects of genotype, treatment, training day, and their interaction with the behavioral parameters of exploratory activity and performance in the Morris water maze were evaluated by analysis of variance (ANOVA) for repeated measures. […]

[2] = system: human neuroblastoma cells SK-N-SH; test: Cellular toxicity, LDH assay; type: cell-based; settings: 1-4 μM
Experimental: as §1
Cell Toxicity and Viability Assays. Cell viability in control and memantine-treated samples was measured using MTT (the tetrazolium dye 3-[4,5-dimethylthiazol-2-yl]-2,5-diphenyltetrazolium bromide). Cellular toxicity was measured uding lactate dehydrogenase (LDH) (Sigma, St. Louis, Mo.) assay.

sAPP = sAPP levels in conditioned media by Western blotting (mAb22C11); type: cell-based, human; settings: SK-N-SH cells; for levels of sAPP in conditioned media: 0.25-1.0 μg/ml (1-4 μM)
Experimental: as §1
Analysis of sAPP levels by Western blotting. Levels of total sAPP in the CM samples were measured by denaturing polyacrylamide gel electrophoresis (SDS-PAGE) followed by the Western immunoblotting using mAb22C11 antibody. Samples were loaded on the gel at equal volume of conditioned media (30 μg protein/sample). The density of specific APP bands in the blot was quantified using the NIH Image software. Levels of APP were expressed as a percent of controls. Levels of the constitutively expressed β-actin protein were measured in parallel as an internal control.
as §2

[3] = humans; Kornhuber and Quack 1995; cited from earlier work
APP/PS1 and NT mice [4] = test: Isolation-induced aggression test; type: in vivo; settings: 30 mg/kg/day in drinking water
Experimental: Isolation-induced aggression: All test mice (‘residents’) had been housed in individual cages for at least 3 weeks prior to the start of this test. ‘Intruders’ were NT male C57B1/J6 mice, 16-20 weeks old at the time of testing, housed in groups of 4-8 since weaning. A randomly chosen intruder was placed in the resident's cage, and aggression of the resident was assessed by measuring attack latency, i.e. the time in seconds between the introduction of the intruder into the cage and the first attack by the resident. […]

rat hippocampal cells = settings: Miguel-Hidalgo et al. 2002; cited from earlier work
APP/PS1 and NT mice [5] = test: Morris water maze (spatial learning and memory); type: in vivo; settings: 30 mg/kg/day; for time spent in the target area, probe trial: sixth day, 60 s, mean±sem
Description: (§3) Transgenic mice expressing either human PS1 harboring the familial AD-linked A246E mutation or chimeric mouse/human APP695 harboring a human Aβ domain and mutations (K595N, M596L) linked to Swedish familial AD pedigrees (APPswe) (Borchelt et al., 1997) were back-crossed to C57BL/6J for 16 generations and then crossed together to generate double transgenic mice co-expressing both transgenes. In all tests, 8-month-old double-mutant male mice (APP/PS1; n=45) and their non-transgenic littermates (NT; n=36, ) were used. […] The therapeutic dose of memantine was defined as the dose producing a steady-state plasma drug level of ˜1 μM and was determined in 8-month-old male C57 BL/6J mice (background strain of the transgenic mice).
Memantine treatment: Based on the pilot study, the dose of 30 mg/kg/day (see Results section for details) was chosen for the behavioral study and administered in drinking water for 3 weeks. Memantine was administered to 23 APP/PS1 mice and 19 NT mice. The placebo group (APP/PS1: n=22; NT: n=17) received drinking water without memantine. Behavioral testing started 2 weeks after treatment onset and continued for one week. After two weeks of treatment, mice were tested for exploratory activity, isolation-induced aggression, and performance in the Morris water maze.
Morris water maze: The Morris water maze was used to measure spatial learning and memory. The apparatus was a black plastic pool with a diameter of 120 cm. A black escape platform (square, 14×14 cm) was located 1.0 cm below (hidden) the water surface. The temperature of the water was kept constant throughout the experiment (20±0.5° C.), and a 10-min recovery period was allowed between the training trials. First, the mice were pre-trained to find and climb onto the platform for two days by using an alley (1 m×14 cm×25 cm) leading to the platform located 1 cm below the water. The training consisted of 8 consecutive days of testing, with 5 trials per day. […] During the first 5 days of testing the mice were trained with a hidden platform. The platform location was kept constant and the starting position varied between four constant locations at the pool rim. Mice were placed in the water with their nose pointing towards the wall at one of the starting points in a random manner. On the sixth day, the platform was removed and the mice were allowed to swim for 60 s to determine their search bias. On testing days 7 and 8, a black curtain was hung around the swimming pool in order to conceal all extra-maze visual cues. […] Timing of the latency to find the submerged platform was started and ended by the experimenter. A computer connected to an image analyzer (HVS Image®, Hampton, UK) monitored the swim pattern. During the water maze training, we measured swimming speed and latency to find the platform. The wall-swimming tendency (thigmotaxis) was assessed by dividing the pool into 3 concentric zones of equal surface area and calculating the time spent in the outer zone. Search bias during the probe trial was measured by calculating the time the mice spent in the vicinity of where the platform was previously located. We defined this as a target area centered on the platform with a diameter of 30 cm. This target area comprised 6.25% of the total surface area, thus a random swim for 60 s in the pool would yield a dwell time of 3.75 s in the target area during the probe trial.
Statistical analysis All statistical analyses were performed using SPSS for Windows software, version 11.5.1 (SPSS, Chicago, Ill.). The effects of genotype, treatment, training day, and their interaction with the behavioral parameters of exploratory activity and performance in the Morris water maze were evaluated by analysis of variance (ANOVA) for repeated measures. Attack latency from the isolation-aggression test was analyzed by two-way ANOVA with genotype and treatment as factors.

[6] = Dose-finding pilot study: steady-state plasma concentration of memantine; type: in vivo, male C57BL/6J mice; settings: male, C57BL/6J, mouse, mean±SEM, read-out: steady-state plasma level
Description: as §3
Dose-finding pilot study: A pilot study was undertaken to determine the therapeutic dose of memantine [i.e., the dose of memantine producing a steady-state plasma drug level of around 1 μM, which several preclinical and clinical studies have indicated is therapeutic (Kornhuber and Quack, 1995; Zajaczkowski et al., 1996)] to be used in subsequent experiments in transgenic mice. Memantine (Forest Research Institute, Jersey City, N.J.) was administered orally (via drinking water) to male C57BL/6J mice at the doses of 10 mg/kg/day (n=10), 30 mg/kg/day (n=10) and 100 mg/kg/day (n=10) for 4 weeks. The placebo group (n=10) had drinking water without memantine. Blood samples were taken from the femoral vein 4 weeks after the initiation of drug treatment to determine the steady-state plasma concentration of memantine. Plasma samples were analyzed at Merz Pharmaceuticals GmbH (Frankfurt am Main, Germany) using a gas chromatograph system coupled with a mass selective detector (Kornhuber and Quack., 1995).

Fisher 344 rats = settings: 30 mg/kg/day for 8 weeks, Barnes et al. 1996; cited from earlier work
[7] = system: human neuroblastoma cells; settings: Lahiri et al. 1998; cited from earlier work

concentration at 4 weeks ([6]; 10 mg/kg/day oral (drinking water)): 490 ± 60 nM
concentration at 4 weeks ([6]; 30 mg/kg/day oral (drinking water)): 1140 ± 70 nM
concentration at 4 weeks ([6]; 100 mg/kg/day oral (drinking water)): 5540 ± 400 nM
SMILES: CC12CC3CC(C)(C1)CC(N)(C3)C2 [memantine, 1-amino-3,5-dimethyl adamantane]
levels of Aβ40 in conditioned media (Aβ40; day 3): no significant changes
levels of Aβ40 in conditioned media (Aβ40; day 6, compared to negative control): significant decrease
levels of Aβ40 in conditioned media (Aβ40; day 9, compared to negative control): significant decrease
Aβ40 levels in the conditioned media (Aβ40; 1-4 μM for up to 12 days): a decrease in its levels
horizontal activity (distance traveled) (APP/PS1 and NT mice [1]): did not significantly affect
vertical activity (rearing) (APP/PS1 and NT mice [1]): did not significantly affect
cellular toxicity (LDH) [2]: not affected; also recorded: no toxicity
sAPP levels in the conditioned media (sAPP; 1 μM for 6-12 days): trend towards a decrease
levels of sAPP in conditioned media (sAPP; day 3): no significant changes
levels of sAPP in conditioned media (sAPP; day 6): dose-dependent decrease
levels of sAPP in conditioned media (sAPP; day 9 and day 12): persisting or further decreasing
sAPP levels in the conditioned media (sAPP; 2-4 μM for 6-12 days): significantly decreased
therapeutically effective circulating concentration [3]: approximately 1 μM
aggressive behavior (latency to attack the intruder) (APP/PS1 and NT mice [4]; APP/PS1 mice): not significantly modified
aggressive behavior (APP/PS1 and NT mice [4]; NT mice): did not increase
Aβ-induced apoptosis (rat hippocampal cells): protected
finding the visible platform (APP/PS1 and NT mice [5]; APP/PS1 mice (FIG. 11B), days 7-8): did not show a significant improvement
time spent in the outer zone of the pool (thigmotaxis) (APP/PS1 and NT mice [5]; APP/PS1 mice, p=0.04): significantly reduced
time spent in the target area, probe trial (APP/PS1 and NT mice [5]; APP/PS1 mice): 39.0 ± 2.0 s
escape latency, hidden platform (APP/PS1 and NT mice [5]; APP/PS1 mice, vs placebo-treated APP/PS1 mice, p=0.02): reduced
time spent in the outer zone of the pool (thigmotaxis) (APP/PS1 and NT mice [5]; NT mice, p=0.004): significantly reduced
escape latency (performance), hidden platform (APP/PS1 and NT mice [5]; NT mice, p=0.09 (not significant)): trend towards improved performance
time spent in the target area, probe trial (APP/PS1 and NT mice [5]; NT mice): 36.1 ± 2.6 s
performance level, hidden platform, compared with placebo-treated NT mice (APP/PS1 and NT mice [5]; memantine-treated APP/PS1 mice, Tukey's post-hoc p=0.96): did not differ
water maze learning (Fisher 344 rats): improved water maze learning

SMILES: Nc1c2c(nc3ccccc13)CCCC2 [tacrine]
cellular damage or toxicity [7]: absence of any detectable cellular damage or toxicity
release of Aβ40 [7]: reduce
release of Aβ42 [7]: reduce
release of sAPPα [7]: reduce
release of total Aβ [7]: reduce
